Laboratory results reported in ChEMBL document CHEMBL1201862, “PubChem BioAssay data set” (2004).
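Cells were grown in 96-well plates and exposed to each compound for 48 hours at five concentrations; endpoints were interpolated linearly between bracketing concentrations, or set to the highest concentration if not reached. At the GI50, growth is halved.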 Calls of active or inactive are those of the source. Cut-off read from the data, not from the text of the source: active = GI50 up to about 1.1 µM and inactive = higher.

Assays:
Test in all cases: NCI tumour cell line growth inhibition, 48 h
HL-60 = test system: HL-60
SF-295 = test system: SF-295
HOP-92 = test system: HOP-92
DMS-273 = test system: DMS-273
TK-10 = test system: TK-10
SF-539 = test system: SF-539
UACC-62 = test system: UACC-62
CAKI-1 = test system: CAKI-1
LOX IMVI = test system: LOX IMVI
SW-620 = test system: SW-620
XF498 = test system: XF498
SN12C = test system: SN12C
MOLT-4 = test system: MOLT-4
M14 = test system: M14
KM-20L2 = test system: KM-20L2
K562 = test system: K562
Malme-3M = test system: Malme-3M
IGROV-1 = test system: IGROV-1
A498 = test system: A498
LXFL 529 = test system: LXFL 529
OVCAR-8 = test system: OVCAR-8
CCRF-CEM = test system: CCRF-CEM
HCT-15 = test system: HCT-15
SK-OV-3 = test system: SK-OV-3
OVCAR-4 = test system: OVCAR-4
NCI-H226 = test system: NCI-H226
RPMI-8226 = test system: RPMI-8226
DLD-1 = test system: DLD-1
KM12 = test system: KM12
U-251 = test system: U-251
SK-MEL-5 = test system: SK-MEL-5
OVCAR-5 = test system: OVCAR-5
HT-29 = test system: HT-29
EKVX = test system: EKVX
M19-MEL = test system: M19-MEL
SK-MEL-2 = test system: SK-MEL-2
NCI-H522 = test system: NCI-H522
HCC 2998 = test system: HCC 2998
NCI-H23 = test system: NCI-H23
786-0 = test system: 786-0
COLO 205 = test system: COLO 205
ACHN = test system: ACHN
OVCAR-3 = test system: OVCAR-3
NCI-H460 = test system: NCI-H460
SK-MEL-28 = test system: SK-MEL-28
SNB-78 = test system: SNB-78
UACC-257 = test system: UACC-257
A549 = test system: A549
UO-31 = test system: UO-31
SF-268 = test system: SF-268
HCT-116 = test system: HCT-116
SNB-19 = test system: SNB-19
HOP-18 = test system: HOP-18
SNB-75 = test system: SNB-75
RXF 393 = test system: RXF 393
RXF 631 = test system: RXF 631
HOP-62 = test system: HOP-62
SR = test system: SR
DMS-114 = test system: DMS-114

SMILES: CCOc1ccc(/N=C/c2ccc3ccccc3n2)cc1
- GI50 (HL-60): > 47.1 µM (inactive)
- GI50 (SF-295): > 100 µM (inactive)
- GI50 (HOP-92): > 75.3 µM (inactive)
- GI50 (DMS-273): > 100 µM (inactive)
- GI50 (TK-10): > 100 µM (inactive)
- GI50 (SF-539): > 100 µM (inactive)
- GI50 (UACC-62): > 100 µM (inactive)
- GI50 (CAKI-1): > 100 µM (inactive)
- GI50 (LOX IMVI): > 73.5 µM (inactive)
- GI50 (SW-620): > 100 µM (inactive)
- GI50 (XF498): > 100 µM (inactive)
- GI50 (SN12C): > 100 µM (inactive)
- GI50 (MOLT-4): > 100 µM (inactive)
- GI50 (M14): > 100 µM (inactive)
- GI50 (KM-20L2): > 100 µM (inactive)
- GI50 (K562): 49.8 µM (inactive)
- GI50 (Malme-3M): > 100 µM (inactive)
- GI50 (IGROV-1): > 100 µM (inactive)
- GI50 (A498): > 100 µM (inactive)
- GI50 (LXFL 529): > 100 µM (inactive)
- GI50 (OVCAR-8): > 100 µM (inactive)
- GI50 (CCRF-CEM): 35.7 µM (inactive)
- GI50 (HCT-15): > 100 µM
- GI50 (SK-OV-3): > 100 µM (inactive)
- GI50 (OVCAR-4): > 100 µM (inactive)
- GI50 (NCI-H226): > 100 µM (inactive)
- GI50 (RPMI-8226): > 87.1 µM (inactive)
- GI50 (DLD-1): > 100 µM (inactive)
- GI50 (KM12): > 100 µM (inactive)
- GI50 (U-251): > 100 µM (inactive)
- GI50 (SK-MEL-5): > 100 µM (inactive)
- GI50 (OVCAR-5): > 100 µM (inactive)
- GI50 (HT-29): > 100 µM (inactive)
- GI50 (EKVX): > 100 µM (inactive)
- GI50 (M19-MEL): > 100 µM (inactive)
- GI50 (SK-MEL-2): > 100 µM (inactive)
- GI50 (NCI-H522): > 100 µM (inactive)
- GI50 (HCC 2998): > 100 µM (inactive)
- GI50 (NCI-H23): > 100 µM (inactive)
- GI50 (786-0): > 100 µM (inactive)
- GI50 (COLO 205): > 100 µM (inactive)
- GI50 (ACHN): > 100 µM (inactive)
- GI50 (OVCAR-3): > 100 µM (inactive)
- GI50 (NCI-H460): > 100 µM (inactive)
- GI50 (SK-MEL-28): > 100 µM (inactive)
- GI50 (SNB-78): > 100 µM (inactive)
- GI50 (UACC-257): > 100 µM (inactive)
- GI50 (A549): > 100 µM (inactive)
- GI50 (UO-31): 61.8 µM (inactive)
- GI50 (SF-268): > 100 µM (inactive)
- GI50 (HCT-116): > 100 µM (inactive)
- GI50 (SNB-19): > 100 µM (inactive)
- GI50 (HOP-18): > 100 µM (inactive)
- GI50 (SNB-75): > 35.3 µM (inactive)
- GI50 (RXF 393): > 100 µM (inactive)
- GI50 (RXF 631): > 100 µM (inactive)
- GI50 (HOP-62): > 100 µM (inactive)

SMILES: CC[N+](C)(C)c1ccc(C(=C2C=CC(=[N+](C)C)C=C2)c2ccc(N(C)C)cc2)cc1
- GI50 (HL-60): 2.4 µM (inactive)
- GI50 (SF-295): 8.67 µM (inactive)
- GI50 (HOP-92): 19.5 µM (inactive)
- GI50 (DMS-273): 6.4 µM (inactive)
- GI50 (TK-10): 28 µM (inactive)
- GI50 (SF-539): 12.8 µM (inactive)
- GI50 (UACC-62): 6.55 µM (inactive)
- GI50 (CAKI-1): 23.7 µM (inactive)
- GI50 (LOX IMVI): 5.2 µM (inactive)
- GI50 (SW-620): 4.41 µM (inactive)
- GI50 (XF498): 15.8 µM (inactive)
- GI50 (SN12C): 4.39 µM (inactive)
- GI50 (MOLT-4): 12.4 µM (inactive)
- GI50 (M14): 11 µM (inactive)
- GI50 (K562): 3.12 µM (inactive)
- GI50 (Malme-3M): 22.8 µM (inactive)
- GI50 (IGROV-1): 12 µM (inactive)
- GI50 (A498): 15.9 µM (inactive)
- GI50 (LXFL 529): 6.04 µM (inactive)
- GI50 (OVCAR-8): 12.8 µM (inactive)
- GI50 (CCRF-CEM): 7.05 µM (inactive)
- GI50 (SR): 10.6 µM (inactive)
- GI50 (HCT-15): 22.2 µM
- GI50 (SK-OV-3): 19.4 µM (inactive)
- GI50 (OVCAR-4): 15.1 µM (inactive)
- GI50 (NCI-H226): 19.7 µM (inactive)
- GI50 (RPMI-8226): 2.19 µM (inactive)
- GI50 (DLD-1): 6.07 µM (inactive)
- GI50 (KM12): 4.55 µM (inactive)
- GI50 (U-251): 3.94 µM (inactive)
- GI50 (SK-MEL-5): 13.4 µM (inactive)
- GI50 (OVCAR-5): 52 µM (inactive)
- GI50 (HT-29): 4.93 µM (inactive)
- GI50 (EKVX): 4.97 µM (inactive)
- GI50 (M19-MEL): 7.91 µM (inactive)
- GI50 (SK-MEL-2): 21.1 µM (inactive)
- GI50 (NCI-H522): 2.79 µM (inactive)
- GI50 (HCC 2998): 6.17 µM (inactive)
- GI50 (NCI-H23): 17.7 µM (inactive)
- GI50 (786-0): 5.94 µM (inactive)
- GI50 (DMS-114): 11 µM (inactive)
- GI50 (COLO 205): 5.31 µM (inactive)
- GI50 (ACHN): 10.8 µM (inactive)
- GI50 (OVCAR-3): 10.5 µM (inactive)
- GI50 (NCI-H460): 5.74 µM (inactive)
- GI50 (SK-MEL-28): 16.9 µM (inactive)
- GI50 (UACC-257): 13.2 µM (inactive)
- GI50 (A549): 4.45 µM (inactive)
- GI50 (UO-31): 27.5 µM (inactive)
- GI50 (SF-268): 10.8 µM (inactive)
- GI50 (HCT-116): 4.2 µM (inactive)
- GI50 (HOP-18): 6.89 µM (inactive)
- GI50 (SNB-75): 4.76 µM (inactive)
- GI50 (RXF 393): 37.3 µM (inactive)
- GI50 (RXF 631): 13.4 µM (inactive)
- GI50 (HOP-62): 8.34 µM (inactive)
